From patent US5075298A, “Cephalosporins” (Roussel Uclaf, priority 1987, dated 1991)
Structures can show the parent of a compound that is named as a salt.

Key:
Assay in all cases: In vitro activity, dilution method in a liquid medium (MIC)
Format in all cases: cell-based
[1] = test system: Escherichia Coli 1507 E; settings: COLI1507E, 24 H
Method: (§1) In vitro activity, dilution method in a liquid medium.
(§2) A series of tubes were prepared in which an equal quantity of sterile nutritive medium was distributed. Increasing quantities of the product under test were distributed into each tube and then each tube was seeded with a bacterial strain. After incubation for 24 or 48 hours in an incubator at 37° C., the inhibition of the growth was estimated by transillumination, which enabled the minimal inhibiting concentrations (M.I.C.), expressed in micrograms/ml to be determined.

[2] = test system: Escherichia Coli O 75; settings: COLIO75, 24 H
Method: as §1, §2

[3] = test system: Pseudomonas aeruginosa 1771 m; settings: 24 H
Method: as §1, §2

[4] = test system: Providencia Du 48; settings: DU48, 24 H
Method: as §1, §2

[5] = test system: Escherichia Coli DC 0; settings: COLIDC0, 24 H
Method: as §1, §2

[6] = test system: Enterobacter cloacae 1 321 E; settings: 1321E, 24 H
Method: as §1, §2

[7] = test system: Escherichia Coli T E M; settings: 24 H
Method: as §1, §2

[8] = test system: Staphylococcus aureus 285; settings: 24 H
Method: as §1, §2

[9] = test system: Staphylococcus aureus Exp. n° 54 146; settings: 24 H
Method: as §1, §2

[10] = test system: Saimonella typhimurium MZ 11; settings: 24 H
Method: as §1, §2

[11] = test system: Streptococcus pyogenes 77 A; settings: 24 H
Method: as §1, §2

[12] = test system: Escherichia Coli UC 1894; settings: UC1894, 24 H
Method: as §1, §2

[13] = test system: Serratia RG 2 532; settings: RG2532, 24 H
Method: as §1, §2

[14] = test system: Kiebsiella pneumoniae Exp. 52 145; settings: 24 H
Method: as §1, §2

[15] = test system: Streptococcus pyogenes A 561; settings: A561, 24 H
Method: as §1, §2

[16] = test system: Proteus mirabilis (indol-) A 235; settings: 24 H
Method: as §1, §2

[17] = test system: Proteus vulgaris (indol) A 232; settings: 24 H
Method: as §1, §2

[18] = test system: Escherichia Coli DC 2; settings: COLIDC2, 24 H
Method: as §1, §2

[19] = test system: Kiebsiella aerogenes 1 522 E; settings: 24 H
Method: as §1, §2

| SMILES | MIC [1] [µg/mL] | MIC [2] [µg/mL] | MIC [3] [µg/mL] | MIC [4] [µg/mL] | MIC [5] [µg/mL] | MIC [6] [µg/mL] | MIC [7] [µg/mL] | MIC [8] [µg/mL] | MIC [9] [µg/mL] | MIC [10] [µg/mL] | MIC [11] [µg/mL] | MIC [12] [µg/mL] | MIC [13] [µg/mL] | MIC [14] [µg/mL] | MIC [15] [µg/mL] | MIC [16] [µg/mL] | MIC [17] [µg/mL] | MIC [18] [µg/mL] | MIC [19] [µg/mL] |
| --- | --- | --- | --- | --- | --- | --- | --- | --- | --- | --- | --- | --- | --- | --- | --- | --- | --- | --- | --- |
| Nc1nc(/C(=N/OC(F)F)C(=O)N[C@@H]2C(=O)N3C(C(=O)[O-])=C(/C=C/C[n+]4cccc5ccsc54)CS[C@H]23)cs1 [ex. 2, (6R,7R)-7-[[(2-amino-4-thiazolyl) [(Z)]-[(difluoromethoxy)imino]]acetamido]-8-oxo-3 [(E) 3-[7-[thieno[2,3-b]pyridino]-1-propenyl]-5-thia-1-azabicyclo[4,2,0]oct-2-en-2-carboxylate (internal salt)] | 0.15 | 1.2 | 1.2 | 2.5 | 2.5 | 0.3 | 0.6 | 5 | 5 | 0.3 | ≤ 0.01 | 0.04 | 10 | 0.6 | ≤ 0.01 | 0.08 | 0.3 | 0.6 | 0.6 |
| CO/N=C(\C(=O)N[C@@H]1C(=O)N2C(C(=O)O)=C(/C=C/C[n+]3cccc4ccsc43)CS[C@H]12)c1csc(N)n1 [ex. 1] | 0.01 | 0.02 | 0.6 | 0.3 | 0.04 | 0.04 | 0.04 | 0.15 | 0.3 | 0.04 | ≤ 0.01 | ≤ 0.01 | 0.15 | 0.08 | ≤ 0.01 | 0.04 | 0.3 | 0.01 | 0.15 |
| CO/N=C(\C(=O)N[C@@H]1C(=O)N2C(C(=O)[O-])=C(/C=C/C[n+]3cccc4ccsc43)CS[C@H]12)c1csc(N)n1 [ex. 3, (6R,7R)-7-[[(2-amino-4-thiazolyl)-[(Z)[methoxyimino]]-acetamido]-8-oxo-3-[(E)-3-[7-[thieno[2,3-b]pyridinio]-1-propenyl]-5-thia-1-azabicyclo[4,2,0]oct-2-en-2-carboxylate (internal salt)] | 0.04 | 0.3 | 2.5 | 1.2 | 1.2 | 0.6 | 0.6 | 2.5 | 2.5 | 0.3 | ≤ 0.01 | 0.08 | 5 | 1.2 | ≤ 0.01 | 0.04 | 0.2 | 0.08 | 0.6 |
